In patent US9067898B1, “Isothiazole derivatives as GPR120 agonists for the treatment of type II diabetes” (Janssen Pharmaceutica NV, priority 2014, dated 2015):

Target: T1, Human GPR120 short form (Homo sapiens, UniProt Q5NUL3)
T1 construct: expressed in transfected cells
T1 sequence (Q5NUL3 1-361): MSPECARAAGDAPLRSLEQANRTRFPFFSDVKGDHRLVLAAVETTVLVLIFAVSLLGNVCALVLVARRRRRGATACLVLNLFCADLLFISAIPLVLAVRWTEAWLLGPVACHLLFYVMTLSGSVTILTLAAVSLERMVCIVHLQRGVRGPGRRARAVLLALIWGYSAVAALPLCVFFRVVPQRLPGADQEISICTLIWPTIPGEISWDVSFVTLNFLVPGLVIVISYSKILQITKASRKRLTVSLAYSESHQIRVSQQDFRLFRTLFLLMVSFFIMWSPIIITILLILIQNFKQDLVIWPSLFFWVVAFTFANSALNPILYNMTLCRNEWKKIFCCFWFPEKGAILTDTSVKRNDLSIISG
Assay: Human GPR120 calcium flux assay (FLIPR), Procedure Calcium A
Type: cell-based
Details: HEK-293 cells expressing human GPR120 short form, 2500 cells/well; read-out: GPR120 Ca2+ Assay A EC50
Excerpt: This in vitro assay serves to assess test compound agonist activity against the short splice variant (SVS with Accession number NM_001195755.1 confirmed by sequencing data) of the GPR120 receptor. The Human Short splice variant #2 (NM_001195755.1) is missing an in-frame coding exon compared to variant 1 (the Human Long splice variant NM_181745.3), resulting in a shorter isoform (GPR120-S) lacking a 16 aa protein segment compared to isoform GPR120-L. The assay platform utilizes HEK-293 cells stably transfected to express the Human GPR120 short form. These cells are first loaded with the Ca^+2 sensitive dye, Fluo-4 NW. Upon stimulation, intracellular released Ca^+2 can bind to the dye and alter its fluorescence intensity. This increase in fluorescence signal, and thus the flux in intracellular [Ca^2+], is detected and quantitated by fluorescence imaging using a FLIPR reader. The effect of the agonist is measured as a function of concentration and used to calculate an EC50 based upon a response curve.
In this procedure 2500 cells/well were employed.
A Human GPR120 clone (Genbank accession number NM_001195755.1) was placed into the pcDNA3.1 mammalian expression vector carrying the neomycin resistance gene. A stable mammalian cell was generated by placing the above clone into a HEK293 background. Clonal cells responding to long chain fatty acids had expression levels of GPR120 confirmed by RT-qPCR. Human HEK-GPR120 cells were cultured in Dulbecco's Modified Eagle's Medium (DMEM)/F12 medium supplemented with 10% fetal bovine serum (FBS), 1% L-Glutamine and 1% penicillin/streptomycin and 0.5 mg/ml G-418. Cells were split 2 times a week to keep the cells in the log-phase growth.
In preparation for the assay, HEK cells stably transfected with Human GPR120 (2.5K cells per well in 25 uL growth medium) were seeded into 384-well plates and then incubated overnight (37° C., 5% CO2). The next day, the media was changed to 20 μL assay buffer and the cell starved for 1 h at 37° C. The dye loading solution (2× dye) was prepared using 10 mL assay buffer, 100 μL of 250 mM probenecid, 1 bottle of Component A, and 20 μl of dye in DMSO. Twenty μL of the 2× dye loading buffer was then added to each well. The plates were incubated at 37° C. for 30 min, then at room temperature for an additional 15 minutes, before performing the assay on FLIPR. Test compounds were prepared in assay buffer (2 uL of cpd+198 uL assay buffer, final DMSO in assay plate is 0.2%) at the desired concentration, more particularly at 100, 50, 25, 12.5, 6.25, 3.125, 1.562, 0.781, 0.391, 0.195, 0.098, 0.049, 0.024 and 0.012 μM.
The assay was performed on a FLIPR plate reader using the following parameters. Baseline was read for 10 seconds at 1 sec intervals. The program was set to transfer 10 μL of ligand from compound plate to cell plate after baseline reading. Aspiration was executed at: 10 μL/sec speed, 4.6 μL height; Dispensing was executed at: 30 μL/sec speed, 45 μL height. After compound addition, each well was read for 300 sec, with measurements collected at 1 sec intervals.
The kinetic data from the FLIPR was based upon a 5 minute window for data collection. The fluorescence of each sample well was used for individual calculations of a normalized RFU value, which was defined as maximum response minus the minimum response. The normalized fluorescence reading (RFU) was calculated as follows: RFU=Fmax−Fmin The data were fitted to a sigmoidal dose-response curve with a variable Hill slope (<2) using nonlinear regression with GraphPad Prism 5.0 to calculate the EC50 values. The Fitting Equation was: Y=Bottom+(Top−Bottom)/(1+10^((Log EC50−X)*HillSlope)), where X is the log of the concentration and Y is the response.

EC50 [nM] | Compound
597 | Cc1ccc(-c2snc(-c3ccccc3)c2COc2c(F)cc(CCC(=O)O)cc2F)c(F)c1 [Cpd 211, 3-(3,5-difluoro-4-[[5-(2-fluoro-4-methylphenyl)-3-phenyl-1,2-thiazol-4-yl]methoxy]phenyl)propanoic acid]
453 | CCc1ccc(-c2nsc(C(C)(F)F)c2COc2ccc(CCC(=O)O)c(C)c2C)cc1 [Cpd 200, 3-(4-[[5-(1,1-difluoroethyl)-3-(4-ethylphenyl)-1,2-thiazol-4-yl]methoxy]-2,3-dimethylphenyl)propanoic acid]
747 | Cc1ccc(-c2csc(C(F)(F)F)c2COc2c(F)cc(CCC(=O)O)cc2F)cn1 [Cpd 62, 3-(3,5-difluoro-4-((4-(6-methylpyridin-3-yl)-2-(trifluoromethyl)thiophen-3-yl)methoxy)phenyl)propanoic acid]
450 | O=C(O)CCc1cc(Br)c(OCc2c(-c3ccc(Cl)cc3)nsc2C(F)(F)F)c(Br)c1 [Cpd 241, 3-(3,5-dibromo-4-[[3-(4-chlorophenyl)-5-(trifluoromethyl)-1,2-thiazol-4-yl]methoxy]phenyl) propanoic acid]
348 | Cc1c(CCC(=O)O)ccc(OCc2c(-c3ccc(Cl)cc3F)csc2C(F)(F)F)c1C [Cpd 59, 3-(4-((4-(4-chloro-2-fluorophenyl)-2-(trifluoromethyl)thiophen-3-yl)methoxy)-2,3-dimethylphenyl)propanoic acid]
263 | Cc1c(CCC(=O)O)ccc(OCc2c(-c3ccc(C(C)(F)F)cc3)nsc2C(F)(F)F)c1C [Cpd 178, 3-[4-([3-[4-(1,1-difluoroethyl)phenyl]-5-(trifluoromethyl)-1,2-thiazol-4-yl]methoxy)-2,3-dimethylphenyl]propanoic acid]
199 | CCc1ccc(-c2csc(C(F)(F)F)c2COc2ccc(CCC(=O)O)c(C)c2C)cc1 [Cpd 54, 3-(4-((4-(4-ethylphenyl)-2-(trifluoromethyl)thiophen-3-yl)methoxy)-2,3-dimethylphenyl)propanoic acid]
114 | CCc1ccc(-c2snc(Cl)c2COc2c(F)cc(CCC(=O)O)cc2F)cc1 [Cpd 124, 3-(4-[[3-chloro-5-(4-ethylphenyl)-1,2-thiazol-4-yl]methoxy]-3,5-difluorophenyl)propanoic acid]
923 | CCc1ccc(-c2nsc(OC)c2COc2ccc(CCC(=O)O)c(C)c2C)cc1 [Cpd 228, 3-(4-[[3-(4-ethylphenyl)-5-methoxy-1,2-thiazol-4-yl]methoxy]-2,3-dimethylphenyl)propanoic acid]
70 | CCc1ccc(-c2nsc(C(F)(F)F)c2COc2ccc(CCC(=O)O)c3sccc23)cc1 [Cpd 92, 3-(4-[[3-(4-ethylphenyl)-5-(trifluoromethyl)-1,2-thiazol-4-yl]methoxy]-1-benzothiophen-7-yl)propanoic acid]
688 | CCCc1ccc(-c2snc(Cl)c2COc2ccc(CCC(=O)O)c(C)c2C)cc1 [Cpd 218, 3-(4-[[3-chloro-5-(4-propylphenyl)-1,2-thiazol-4-yl]methoxy]-2,3-dimethylphenyl)propanoic acid]
123 | O=C(O)CCc1cc(F)c(OCc2sc(Cl)cc2-c2ccc(Cl)cc2)c(F)c1 [Cpd 10, 3-(4-[[5-chloro-3-(4-chlorophenyl)thiophen-2-yl]methoxy]-3,5-difluorophenyl)propanoic acid]
278 | Cc1c(CCC(=O)O)ccc(OCc2c(-c3ccc(Cl)cc3)csc2C(F)(F)F)c1C [Cpd 57, 3-(4-((4-(4-chlorophenyl)-2-(trifluoromethyl)thiophen-3-yl)methoxy)-2,3-dimethylphenyl)propanoic acid]
849 | O=C(O)CCc1ccc(OCc2csnc2-c2ccc(Cl)s2)c(F)c1F [Cpd 226, 3-(4-((3-(5-chlorothiophen-2-yl)isothiazol-4-yl)methoxy)-2,3-difluorophenyl)propanoic acid]
90 | Cc1c(CCC(=O)O)ccc(OCc2sc(Cl)cc2-c2ccc(Cl)cc2)c1C [Cpd 6, 3-(4-[[5-chloro-3-(4-chlorophenyl)thiophen-2-yl]methoxy]-2,3-dimethylphenyl) propanoic acid]
606 | O=C(O)CCc1cc(F)c(OCc2c(C3CCOC3)nsc2C(F)(F)F)c(F)c1 (centres unmarked) [Cpd 214, 3-(3,5-difluoro-4-((3-(tetrahydrofuran-3-yl)-5-(trifluoromethyl)isothiazol-4-yl)methoxy)phenyl)propanoic acid]
468 | O=C(O)CCc1cc(F)c(OCc2csnc2-c2ccc(Cl)s2)c(F)c1 [Cpd 202, 3-(4-((3-(5-chlorothiophen-2-yl)isothiazol-4-yl)methoxy)-3,5-difluorophenyl)propanoic acid]
160 | COc1cc(-c2nsc(C(F)(F)F)c2COc2ccc(CCC(=O)O)c(C)c2C)ccc1Cl [Cpd 144, 3-(4-((3-(4-chloro-3-methoxyphenyl)-5-(trifluoromethyl)isothiazol-4-yl)methoxy)-2,3-dimethylphenyl)propanoic acid]
566 | Cc1cc(OCc2c(-c3c(F)cc(Cl)cc3F)nsc2C(F)(F)F)c(F)cc1CCC(=O)O [Cpd 207, 3-(4-((3-(4-chloro-2,6-difluorophenyl)-5-(trifluoromethyl)isothiazol-4-yl)methoxy)-5-fluoro-2-methylphenyl)propanoic acid]
203 | CCc1ccc(-c2nsc(C(F)(F)F)c2COc2c(F)cc(C3CC3C(=O)O)cc2F)cc1 (centres unmarked) [Cpd 163, 2-(4-[[3-(4-ethylphenyl)-5-(trifluoromethyl)-1,2-thiazol-4-yl]methoxy]-3,5-difluorophenyl)cyclopropane-1-carboxylic acid]
496 | Cc1c(CCC(=O)O)ccc(OCc2csnc2-c2ccc(Cl)s2)c1C [Cpd 204, 3-(4-((3-(5-chlorothiophen-2-yl)isothiazol-4-yl)methoxy)-2,3-dimethylphenyl)propanoic acid]
1100 | CCc1ccc(-c2nsc(-c3ccccc3)c2COc2ccc(CCC(=O)O)c(C)c2C)cc1 [Cpd 233, 3-(4-[[3-(4-ethylphenyl)-5-phenyl-1,2-thiazol-4-yl]methoxy]-2,3-dimethylphenyl)propanoic acid]
99 | Cc1c(CCC(=O)O)ccc(OCc2c(Cl)nsc2-c2ccc(C(F)(F)F)cc2)c1C [Cpd 112, 3-[4-([3-chloro-5-[4-(trifluoromethyl)phenyl]-1,2-thiazol-4-yl]methoxy)-2,3-dimethylphenyl]propanoic acid]
406 | CCc1ccc(-c2cc(F)sc2COc2ccc(CCCO)c(F)c2F)cc1 [Cpd 17, 3-(4-[[3-(4-ethylphenyl)-5-fluorothiophen-2-yl]methoxy]-2,3-difluorophenyl)propan-1-ol]
266 | Cc1c(CCCO)ccc(OCc2sc(Cl)cc2-c2ccc(Cl)cc2)c1C [Cpd 15, 3-(4-[[5-chloro-3-(4-chlorophenyl)thiophen-2-yl]methoxy]-2,3-dimethylphenyl)propan-1-ol]
188 | CCc1ccc(-c2nsc(C(F)(F)F)c2COc2ccc(CCC(=O)O)c(F)c2C(F)(F)F)cc1 [Cpd 157, 3-(4-[[3-(4-ethylphenyl)-5-(trifluoromethyl)-1,2-thiazol-4-yl]methoxy]-2-fluoro-3-(trifluoromethyl)phenyl)propanoic acid]
